Experimental findings from patent US20180344725A1, “QUINOLONE CHALCONE COMPOUNDS AND USES THEREOF” (priority 2015, published 2018) are described below.

The test system of this assay is ANBL6-BR. In words: Antiproliferation, bortezomib-resistant cells. It counts as cell-based. The conditions noted are these: ANBL6-BR (bortezomib-resistant multiple myeloma). As for the experimental part: All of the cell lines used were purchased from ATCC and cultured in RPMI-1640 supplemented with 10% fetal bovine serum and antibiotics (100 units penicillin/100 μg/ml streptomycin), unless stated otherwise. 1845B5 and MCF-10A non-cancer breast cell lines were cultured in DME/F12 medium supplemented with 10% fetal bovine serum, antibiotics and growth factors. […] The human small cell lung carcinoma H69 cell line and its multidrug-resistant MRP1-overexpressing isogenic H69AR cell line were purchased from ATCC. […] H69 cells grow as large multi-cell aggregates, making it difficult to accurately count cell numbers. […] The IL-6 dependent bortezomib-resistant ANBL6-BR cell line was further supplemented with 1 ng/ml of IL-6. The MCF10AT1 and MCF10CA1a cell lines are isogenic to the MCF10A cell line, and obtained from Dr. Valerie Weaver at the Center for Bioengineering and Tissue Regeneration, UCSF, CA, USA. […] Cell growth (inhibition) was calculated by the following formula: % cells proliferation=[(AT-CT)/(ST-CT)]×100 wherein AT=absorbance of treated cells, CT=absorbance of negative control cells, and ST=absorbance of sham treated cells. […] The combinational index (CI) was calculated as described previously (Chou 2006). […] CI values were determined from four independent experiments.

What is called IC50 is the concentration that gives 50% inhibition. In the case of `COc1ccc2[nH]c(=O)c(/C=C/C(=O)c3ccccc3OC)cc2c1` [CTR-20, (E)-6-Methoxy-3-(3-(2-methoxyphenyl)-3-oxoprop-1-enyl) quinolin-2(1H)-one], the IC50 is 760 ± 280 nM.
